Publication PMC11459966, “Oral pharmacokinetics and efficacy of oral phospholipid remdesivir nucleoside prodrugs against SARS-CoV-2 in mice” (Antimicrobial Agents and Chemotherapy, 2024)
Like-named read-outs stand apart in the source and are kept apart here. Marks after values point to notes of the source that are not given here.

What was measured:
[1] = test system: SARS-CoV-2 B.1.351 (Beta variant); format: in vivo, BALB/c mice; conditions: for reduction of lung titers: mouse, in vivo, po, 80 mg/kg; for effect on lung titers at day 4 post-infection / lung titers vs limit of detection at day 4 post-infection / weight loss at 2 dpi compared to vehicle-treated mice / lung histopathology scores at 4 dpi / effect on lung titers at day 2 / effect on lung titers at 4 dpi (significant reduction): prophylaxis; for effect on lung titers at day 4 post-infection: 27 mg/kg or 80 mg/kg once daily PO; for antiviral effects on lung titers at 2 dpi: prophylaxis, 8, 27 or 80 mg/kg once daily PO; for lung titers vs limit of detection at day 4 post-infection: once daily PO, for V2067 even at 8 mg/kg; for weight loss at 2 dpi compared to vehicle-treated mice: V2043 80 mg/kg, V2053 27 and 80 mg/kg, V2067 all doses; for weight loss at 2 dpi compared to vehicle-treated mice / effect on lung titers at 4 dpi (significant reduction): obeldesivir 10 or 30 mg/kg BID; for lung histopathology scores at 4 dpi: GS-5245 30 mg/kg BID, V2053 8 mg/kg, H&E; for effect on lung titers at day 2: EIDD-2801 100 mg/kg BID, GS-5245 10 or 30 mg/kg BID; for effect on lung titers at day 2 / effect on lung titers at 4 dpi (significant reduction): PO; for effect on lung titers at 4 dpi (significant reduction): comparators: EIDD-2801 100 mg/kg BID, remdesivir 25 mg/kg BID
[2] = test system: SARS-CoV-2 B.1.351 (Beta variant); format: in vivo, BALB/c mice; conditions: for level of infectious SARS-CoV-2 in the lung at 2 dpi compared to vehicle: V2043, V2053, V2067 at 27 or 80 mg/kg; for lung infectious units vs limit of detection at 4 dpi: V2043 and V2067 27 and 80 mg/kg, V2053 80 mg/kg once daily, EIDD-2801 100 mg/kg BID, GS-5245 30 mg/kg BID; for Daily dose required to reach below the limit of detection on day 4 post-infection / Molar daily dose required to reach below the limit of detection on day 4 post-infection / reduction of lung infectious units compared to vehicle: mouse, in vivo; for reduction of lung infectious units compared to vehicle: po, 80 mg/kg; for lung titers reduced to below the limit of detection at 4 dpi: GS-5245 10 mg/kg BID, remdesivir 25 mg/kg BID
[3] = daily dose derived from prophylaxis experiment (Fig. 4)

Row | Structure (SMILES) | reduction of lung titers [1] [Log10] | effect on lung titers at day 4 post-infection [1] | antiviral effects on lung titers at 2 dpi [1] | lung titers vs limit of detection at day 4 post-infection [1] | weight loss at 2 dpi compared to vehicle-treated mice [1] | level of infectious SARS-CoV-2 in the lung at 2 dpi compared to vehicle [2] | lung infectious units vs limit of detection at 4 dpi [2] | Daily dose required to reach below the limit of detection on day 4 post-infection [2] [mg/kg] | Molar daily dose required to reach below the limit of detection on day 4 post-infection [2] [µmol/kg] | reduction of lung infectious units compared to vehicle [2] [log10] | lung histopathology scores at 4 dpi [1] | Daily dose required to reach below the limit of detection on day 4 post-infection [1, 3] | Fold ∆ vs MPV (molar daily dose) [1, 3] [×] | Fold ∆ vs OBDV (molar daily dose) [1, 3] [×] | Molar daily dose required to reach below the limit of detection on day 4 post-infection [1, 3] [µmol/kg] | Fold ∆ vs MPV (molar daily dose) ([2]; therapeutic model) [×] | Fold ∆ vs OBDV (molar daily dose) ([2]; therapeutic model) [×] | effect on lung titers at day 2 [1] | effect on lung titers at 4 dpi (significant reduction) [1] | lung titers reduced to below the limit of detection at 4 dpi [2]
1 | CCCCCCCCCCCCCCCCCCOC[C@H](COP(=O)(O)OC[C@H]1O[C@@](C#N)(c2ccc3c(N)ncnn23)[C@H](O)[C@@H]1O)OCc1ccccc1 [Compound V2043, 1-O-octadecyl-2-O-benzyl-sn-glyceryl-P-RVn] | 2.29 | significantly reduced lung titers | dose-dependent antiviral effects | below the limit of detection in all animals | lost less weight | significantly reduced | below the limit of detection in all animals | 27 | 34.3 | 3.1 |  |  |  |  |  |  |  |  |  | 
2 | CCCCCCCCC=CCCCCCCCCOCC(COP(=O)(O)OCC1OC(C#N)(c2ccc3c(N)ncnn23)C(O)C1O)OCc1ccc(OC)c(F)c1 (stereo not drawn) [Compound V2053] |  | significantly reduced lung titers | dose-dependent antiviral effects |  | lost less weight | significantly reduced | below the limit of detection in all animals |  |  | 3.0 | small but significant reductions |  |  |  |  |  |  |  |  | 
3 | CCCCCCCCCCCCCCCCCCOCC(COP(=O)(O)OC[C@H]1O[C@@](C#N)(c2ccc3c(N)ncnn23)[C@H](O)[C@@H]1O)OCc1ccc(C#N)cc1 (stereo partly drawn) [Compound V2067] | 1.83 | significantly reduced lung titers | dose-dependent antiviral effects | below the limit of detection in all animals | lost less weight | significantly reduced | below the limit of detection in all animals | 27 | 33.2 | 3.2 |  | 8^a mg/kg | 61.9 | 16.9 | 9.8 | 18.2 | 5.0 |  |  | 
4 | CC(C)C(=O)OC[C@H]1O[C@@H](n2ccc(NO)nc2=O)[C@H](O)[C@@H]1O [EIDD-2801, reference compound] |  |  |  |  |  |  | reduced lung titers to below the limit of detection | 200 | 607 |  |  |  |  |  |  |  |  | significantly reduced lung titers | significantly reduced lung titers | 
5 | CC(C)C(=O)OC[C@H]1O[C@@](C#N)(c2ccc3c(N)ncnn23)[C@H](O)[C@@H]1O [Obeldesivir GS-5245, reference compound] |  |  |  |  | lost less weight |  | reduced lung titers to below the limit of detection | 60 | 166 |  | small but significant reductions |  |  |  |  |  |  | significantly reduced lung titers | did not | did not
6 | CCC(CC)COC(=O)[C@H](C)N[P@](=O)(OC[C@H]1O[C@@](C#N)(c2ccc3c(N)ncnn23)[C@H](O)[C@@H]1O)Oc1ccccc1 [remdesivir] |  |  |  |  |  |  |  |  |  |  |  |  |  |  |  |  |  |  | did not | did not
